Assay results reported in patent US20250099622A1, “COMPOSITIONS AND METHODS FOR EXPRESSING THERAPEUTICS” (priority 2022, published 2025).

T1: Human NPR-B (Homo sapiens, UniProt P20594)
T1 construct: purchased R&D system
T1 sequence (P20594 23-458 limits assumed): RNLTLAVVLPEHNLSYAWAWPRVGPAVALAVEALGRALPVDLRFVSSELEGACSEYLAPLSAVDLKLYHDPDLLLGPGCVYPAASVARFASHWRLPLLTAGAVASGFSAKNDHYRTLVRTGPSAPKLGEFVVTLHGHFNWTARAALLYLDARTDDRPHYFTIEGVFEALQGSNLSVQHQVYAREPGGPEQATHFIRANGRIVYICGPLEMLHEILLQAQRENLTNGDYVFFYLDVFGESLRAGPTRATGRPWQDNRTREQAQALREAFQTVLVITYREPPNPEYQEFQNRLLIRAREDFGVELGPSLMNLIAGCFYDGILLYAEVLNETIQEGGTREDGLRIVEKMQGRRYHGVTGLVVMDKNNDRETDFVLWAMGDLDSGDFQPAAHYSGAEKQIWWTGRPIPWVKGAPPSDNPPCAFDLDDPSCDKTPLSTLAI

T2: Human NPR-B (R&D system) (human, UniProt P20594 23-458, limits assumed)
T2 construct: Bought protein immobilised on the Biacore chip; also called NBR-B; natriuretic peptide receptor B
T2 sequence (looked up): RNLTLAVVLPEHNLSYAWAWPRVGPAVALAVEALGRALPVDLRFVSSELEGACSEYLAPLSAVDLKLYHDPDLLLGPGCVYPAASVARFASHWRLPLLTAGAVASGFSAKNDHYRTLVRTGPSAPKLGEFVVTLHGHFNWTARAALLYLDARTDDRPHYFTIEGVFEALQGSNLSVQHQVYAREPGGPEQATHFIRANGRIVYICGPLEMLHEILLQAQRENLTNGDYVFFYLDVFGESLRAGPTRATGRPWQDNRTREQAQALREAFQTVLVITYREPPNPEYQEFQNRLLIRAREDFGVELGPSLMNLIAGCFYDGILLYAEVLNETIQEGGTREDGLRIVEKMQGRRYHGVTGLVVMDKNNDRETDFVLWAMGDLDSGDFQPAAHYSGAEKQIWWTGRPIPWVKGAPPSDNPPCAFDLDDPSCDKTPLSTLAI

T3: NPR-B on NIH/3T3 cells (NPR-B receptor positive cell line) (UniProt Q6VVW5 17-1047, limits assumed)
T3 sequence (looked up): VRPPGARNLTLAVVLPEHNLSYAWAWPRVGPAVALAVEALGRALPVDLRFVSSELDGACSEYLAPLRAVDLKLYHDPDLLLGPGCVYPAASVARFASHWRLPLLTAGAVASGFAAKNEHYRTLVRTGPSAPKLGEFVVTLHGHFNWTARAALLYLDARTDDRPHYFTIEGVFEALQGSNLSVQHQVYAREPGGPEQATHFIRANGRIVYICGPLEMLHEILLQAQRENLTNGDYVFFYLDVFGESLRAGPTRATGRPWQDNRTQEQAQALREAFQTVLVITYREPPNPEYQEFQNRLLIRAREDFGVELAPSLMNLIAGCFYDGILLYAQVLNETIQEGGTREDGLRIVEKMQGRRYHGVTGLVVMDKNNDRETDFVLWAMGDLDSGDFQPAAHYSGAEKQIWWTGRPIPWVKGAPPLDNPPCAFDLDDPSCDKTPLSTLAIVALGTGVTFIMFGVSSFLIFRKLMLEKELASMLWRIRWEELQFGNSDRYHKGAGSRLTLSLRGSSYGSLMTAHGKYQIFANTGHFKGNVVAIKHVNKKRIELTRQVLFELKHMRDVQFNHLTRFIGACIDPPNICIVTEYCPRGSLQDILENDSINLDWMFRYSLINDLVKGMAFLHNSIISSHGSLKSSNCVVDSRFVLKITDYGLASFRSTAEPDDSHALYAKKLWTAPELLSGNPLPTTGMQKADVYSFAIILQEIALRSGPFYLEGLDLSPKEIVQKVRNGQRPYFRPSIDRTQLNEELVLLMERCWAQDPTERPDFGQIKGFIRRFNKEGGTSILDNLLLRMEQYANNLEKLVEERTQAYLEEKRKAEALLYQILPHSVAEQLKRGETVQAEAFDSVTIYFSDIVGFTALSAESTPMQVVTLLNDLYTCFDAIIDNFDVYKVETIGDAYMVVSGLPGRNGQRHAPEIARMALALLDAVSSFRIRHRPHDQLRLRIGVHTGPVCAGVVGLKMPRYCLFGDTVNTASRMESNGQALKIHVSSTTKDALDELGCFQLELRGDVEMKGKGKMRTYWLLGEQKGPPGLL


What was measured:
Human NPR-B = molecular target: T1, Human NPR-B; assay: Biacore SPR kinetic affinity binding to immobilized NPR-B
Procedure: The biological function of these purified protein was assayed for their stimulation of production of cGMP, using NPR-B receptor positive cell line, NIH/3T3 and NPR-B negative cell line HEK293 cells. The determination of cGMP was assay by ELISA using commercial CNP as standard curves. […] Surface preparation. NBR-B was immobilized at different levels in three flow cells via standard amine coupling, leaving Fc 1 unmodified to serve as a reference. All surface plasmon resonance (SPR) analysis was performed on a BIAcore 3000 system using series CM5 sensor chips. Data processing and analysis were performed using BIAevaluation software. All sensorgrams were double referenced by subtracting the response on a reference flow cell and a blank sample. Human NPR-B (R&D system) was covalently attached to a CM5 chip via amine coupling. A surface density of 6600 RU was used for measurements with natriuretic peptides Sequential injections of CNP (0.5-8 nM) were performed at a flow rate of […] (300 s for each), followed by a dissociation time of 900 s. […] Kinetic parameters were calculated assuming a simple 1:1 (Langmuir) binding. […] All SPR analysis was performed on a BIAcore 3000 system using series CM5 sensor chips. Data processing and analysis were performed using BIAevaluation software. All sensorgrams were double referenced by subtracting the response on a reference flow cell and a blank sample. Human NPR-B (R&D system) was covalently attached to a CM5 chip via amine coupling. A surface density of 3100 RU was used for measurements with natriuretic peptides Sequential injections of AMI263 (FC4-CNP) (0.125-2 nM) were performed at a flow rate of […] (300 s for each), followed by a dissociation time of 900 s. […] Kinetic parameters were calculated assuming a simple 1:1 (Langmuir) binding. […] All SPR analysis was performed on a BIAcore 3000 system using series CM5 sensor chips. Data processing and analysis were performed using BIAevaluation software. All sensorgrams were double referenced by subtracting the response on a reference flow cell and a blank sample. Human NPR-B (R&D system) was covalently attached to a CM5 chip via amine coupling. […] Kinetic parameters were calculated assuming a simple 1:1 (Langmuir) binding. […] All SPR analysis was performed on a BIAcore 3000 system using series CM5 sensor chips. Data processing and analysis were performed using BIAevaluation software. All sensorgrams were double referenced by subtracting the response on a reference flow cell and a blank sample. Human NPR-B (R&D system) was covalently attached to a CM5 chip via amine coupling. A surface density of 3100 RU was used for measurements with natriuretic peptides Sequential injections of AMI263 (FC4-CNP) (0.5-300 nM) were performed at a flow rate of […] (300 s for each), followed by a dissociation time of 900 s. […] Kinetic parameters were calculated assuming a simple 1:1 (Langmuir) binding. […] All SPR analysis was performed on a BIAcore 3000 system using series CM5 sensor chips. Data processing and analysis were performed using BIAevaluation software. All sensorgrams were double referenced by subtracting the response on a reference flow cell and a blank sample. Human NPR-B (R&D system) was covalently attached to a CM5 chip via amine coupling.

[1] = background statement; cited from earlier work
[2] = system: NIH3T3 cells (cGMP secreted); assay: EC50 for CNP-Fc constructs, cGMP ELISA of NIH3T3 supernatant; assay type: cell-based; settings: NIH3T3, 30 minutes, 1.8 mM IBMX, cGMP secreted by the cells; FIG. 25B
Procedure: EC50 for CNP-Fc described herein were measured by ELISA. 2.5E+05 NIH3T3 cells/well were plated. […] After 30 minutes, supernatant was collected for cGMP determined via ELISA. FIG. 25A illustrates a standard curve of cGMP.

Human NPR-B (R&D system) [3] = molecular target: T2, Human NPR-B (R&D system); assay: SPR (Biacore 3000), human NPR-B amine-coupled to CM5 chip, single-cycle kinetics, 1:1 Langmuir fit
Procedure: Kinetic parameters were calculated assuming a simple 1:1 (Langmuir) binding. […] All SPR analysis was performed on a BIAcore 3000 system using series CM5 sensor chips. Data processing and analysis were performed using BIAevaluation software. All sensorgrams were double referenced by subtracting the response on a reference flow cell and a blank sample. Human NPR-B (R&D system) was covalently attached to a CM5 chip via amine coupling. […] Kinetic parameters were calculated assuming a simple 1:1 (Langmuir) binding. […] All SPR analysis was performed on a BIAcore 3000 system using series CM5 sensor chips. Data processing and analysis were performed using BIAevaluation software. All sensorgrams were double referenced by subtracting the response on a reference flow cell and a blank sample. Human NPR-B (R&D system) was covalently attached to a CM5 chip via amine coupling. […] Kinetic parameters were calculated assuming a simple 1:1 (Langmuir) binding. […] All SPR analysis was performed on a BIAcore 3000 system using series CM5 sensor chips. Data processing and analysis were performed using BIAevaluation software. All sensorgrams were double referenced by subtracting the response on a reference flow cell and a blank sample. Human NPR-B (R&D system) was covalently attached to a CM5 chip via amine coupling.

Human NPR-B (R&D system) [4] = molecular target: T2, Human NPR-B (R&D system); assay: SPR (Biacore 3000), FIG. 7C, single-cycle kinetics, NPR-B at 6600 RU on CM5, CNP 0.5-8 nM; differs from Table 32
Procedure: Kinetic parameters were calculated assuming a simple 1:1 (Langmuir) binding. […] All SPR analysis was performed on a BIAcore 3000 system using series CM5 sensor chips. Data processing and analysis were performed using BIAevaluation software. All sensorgrams were double referenced by subtracting the response on a reference flow cell and a blank sample. Human NPR-B (R&D system) was covalently attached to a CM5 chip via amine coupling. […] Kinetic parameters were calculated assuming a simple 1:1 (Langmuir) binding. […] All SPR analysis was performed on a BIAcore 3000 system using series CM5 sensor chips. Data processing and analysis were performed using BIAevaluation software. All sensorgrams were double referenced by subtracting the response on a reference flow cell and a blank sample. Human NPR-B (R&D system) was covalently attached to a CM5 chip via amine coupling. […] Kinetic parameters were calculated assuming a simple 1:1 (Langmuir) binding. […] All SPR analysis was performed on a BIAcore 3000 system using series CM5 sensor chips.

[5] = molecular target: T3, NPR-B on NIH/3T3 cells (NPR-B receptor …); assay: cell-based or functional assay
[6] = molecular target: T3, NPR-B on NIH/3T3 cells (NPR-B receptor …); assay: cell-based or functional assay; remark: listed apart in the source

| Molecule | ka (Human NPR-B; (FIG. 7C-7I)) | kd (Human NPR-B; (FIG. 7C-7I)) | ka (Human NPR-B; Table 32 summary of affinity) | kd (Human NPR-B; Table 32 summary of affinity) | half-life [1] | EC50 values (rank order) [2] | Kd (Human NPR-B (R&D system) [3]) [nM] | Kd (Human NPR-B (R&D system) [4]) [nM] | kon (Human NPR-B (R&D system) [4]) [M⁻¹ s⁻¹] | EC50 (cGMP production, table 'EC50 NIH3T3 cells', row CNP-22) [5] [nM] | EC50 (cGMP production, drawn table, row CNP-22) [6] [nM] | EC50 (read off the curve), cGMP production [6] [nM] |
| --- | --- | --- | --- | --- | --- | --- | --- | --- | --- | --- | --- | --- |
| CC[C@H](C)[C@@H]1NC(=O)[C@H](CCCNC(=N)N)NC(=O)[C@H](CC(=O)O)NC(=O)[C@H](CC(C)C)NC(=O)[C@H](CCCCN)NC(=O)[C@H](CC(C)C)NC(=O)CNC(=O)[C@H](Cc2ccccc2)NC(=O)[C@@H](NC(=O)CNC(=O)[C@H](CCCCN)NC(=O)[C@H](CO)NC(=O)[C@H](CC(C)C)NC(=O)CN)CSSC[C@@H](C(=O)O)NC(=O)CNC(=O)[C@H](CC(C)C)NC(=O)CNC(=O)[C@H](CO)NC(=O)[C@H](CCSC)NC(=O)[C@H](CO)NC(=O)CNC1=O [CNP-22, reference compound] | 1.31e7 | 4.74E-4 | 1.37E+07 | 4.74E−04 | only a few minutes | CNP-22 ≡Fc4-CNP36>Aflibercept-Fc4-CNP36>Fc1-CNP36>>Fc4-CNP22 | – | – | – | – | – | – |
| GLSKGCFGLKLDRIGSMSGLGC (also called C-type natriuretic peptide) [CNP-22] | – | – | – | – | – | – | 0.0346 | 0.0363 | 1.31e+07 | 11.8 | 11.8 | ~10 |
